The target of experiment [1] is wild-type un-phosphorylated FGFR1 (Homo sapiens, UniProt P11362). Put plainly: FGFR Enzymatic Assay (FRET peptide phosphorylation), FGFR1. Particulars: pre-incubated for 4 hours.
In experiment [2] the target is wild-type un-phosphorylated FGFR3 (Homo sapiens, UniProt P22607). Put plainly: FGFR Enzymatic Assay (FRET peptide phosphorylation), FGFR3.
Procedure: (§1) The inhibitor potency of the exemplified compounds was determined in an enzyme discontinuous assay that measures peptide phosphorylation using FRET measurements to detect product formation. Inhibitors were serially diluted in DMSO and a volume of 0.2 μL was transferred to the wells of a 384-well plate. […] Appropriate controls (enzyme blank and enzyme with no inhibitor) were included on the plate. […] The 10 μL/well reaction concentration of the peptide substrate was 500 nM whereas the ATP concentration was maintained near or below the ATP Km. The ATP Km values were pre-determined in a separate series of experiments. The reaction plate was incubated at 25° C. for 1 hr and the reactions were ended with the addition of 5 μL/well of quench solution (50 mM Tris, 150 mM NaCl, 0.5 mg/mL BSA, pH 7.8; 45 mM EDTA, 600 nM staurosporin, with Perkin Elmer Lance Reagents at 3.75 nM Eu-antibody PY20 and 180 nM APC-Streptavidin). The plate was allowed to equilibrate for ˜10 minutes at ambient temperature before scanning on a PheraStar plate reader (BMG Labtech) instrument.
(§2) Either GraphPad prism or XLfit was used to analyze the data. The IC50 values were derived by fitting the data to a four parameter logistic equation producing a sigmoidal dose-response curve with a variable Hill coefficient. Prism equation: Y=Bottom+(Top-Bottom)/(1+10^((Log IC50-X)*Hill slope)); XLfit equation: Y=(A+((B−A)/(1+((X/C)^D)))) where X is the logarithm of inhibitor concentration and Y is the response.
(§3) GraphPad prism3 was used to analyze the data. The IC50 values were derived by fitting the data to the equation for a sigmoidal dose-response with a variable slope. Y=Bottom+(Top-Bottom)/(1+10^((Log IC50-X)*Hill Slope)) where X is the logarithm of concentration and Y is the response.
Experiment [3] addresses wild-type un-phosphorylated FGFR4 (Homo sapiens, UniProt P22455). The experiment is described as follows: FGFR Enzymatic Assay (FRET peptide phosphorylation), FGFR4.
Procedure: as §1, §2, §3
The data in Table 1 was measured in wild-type un-phosphorylated FGFR1, FGFR2, FGFR3, and FGFR4 proteins.
Experiment [4] addresses wild-type un-phosphorylated FGFR2 (Homo sapiens, UniProt P21802). The experiment is described as follows: FGFR Enzymatic Assay (FRET peptide phosphorylation), FGFR2.
Where [5] appears, read: read-out: FGFR1, wild-type un-phosphorylated FGFR1.
Where [6] appears, read: read-out: FGFR4, wild-type un-phosphorylated FGFR4, pre-incubated for 4 hours.
Where [7] appears, read: read-out: FGFR2, wild-type un-phosphorylated FGFR2, pre-incubated for 4 hours.
Setting [8] is: FGFR1, wild-type un-phosphorylated FGFR1.

Read-outs that look alike come from different tables or passages of the source.

Sequence of wild-type un-phosphorylated FGFR2 (P21802 22-821): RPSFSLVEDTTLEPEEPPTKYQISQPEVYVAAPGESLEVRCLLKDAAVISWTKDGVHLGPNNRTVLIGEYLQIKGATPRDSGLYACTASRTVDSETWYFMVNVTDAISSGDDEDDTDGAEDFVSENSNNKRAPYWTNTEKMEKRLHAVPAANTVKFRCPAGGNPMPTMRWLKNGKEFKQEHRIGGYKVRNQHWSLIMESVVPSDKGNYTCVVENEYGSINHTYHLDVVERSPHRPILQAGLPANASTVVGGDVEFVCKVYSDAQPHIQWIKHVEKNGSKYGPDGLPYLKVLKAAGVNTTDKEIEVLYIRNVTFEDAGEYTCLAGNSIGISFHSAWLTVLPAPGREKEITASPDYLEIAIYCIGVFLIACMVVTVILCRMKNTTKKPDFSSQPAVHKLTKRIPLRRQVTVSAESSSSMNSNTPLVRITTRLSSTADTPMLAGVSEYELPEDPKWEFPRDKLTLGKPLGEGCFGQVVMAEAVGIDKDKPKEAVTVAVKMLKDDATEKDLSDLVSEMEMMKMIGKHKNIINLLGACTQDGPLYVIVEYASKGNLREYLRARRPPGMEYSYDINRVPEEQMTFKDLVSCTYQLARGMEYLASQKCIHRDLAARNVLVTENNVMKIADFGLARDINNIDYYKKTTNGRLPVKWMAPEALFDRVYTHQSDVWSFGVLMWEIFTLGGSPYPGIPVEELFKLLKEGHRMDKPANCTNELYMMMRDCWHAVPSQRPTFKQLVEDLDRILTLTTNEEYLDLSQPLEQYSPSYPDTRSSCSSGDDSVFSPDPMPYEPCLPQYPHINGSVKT
Sequence of wild-type un-phosphorylated FGFR3 (P22607 23-806): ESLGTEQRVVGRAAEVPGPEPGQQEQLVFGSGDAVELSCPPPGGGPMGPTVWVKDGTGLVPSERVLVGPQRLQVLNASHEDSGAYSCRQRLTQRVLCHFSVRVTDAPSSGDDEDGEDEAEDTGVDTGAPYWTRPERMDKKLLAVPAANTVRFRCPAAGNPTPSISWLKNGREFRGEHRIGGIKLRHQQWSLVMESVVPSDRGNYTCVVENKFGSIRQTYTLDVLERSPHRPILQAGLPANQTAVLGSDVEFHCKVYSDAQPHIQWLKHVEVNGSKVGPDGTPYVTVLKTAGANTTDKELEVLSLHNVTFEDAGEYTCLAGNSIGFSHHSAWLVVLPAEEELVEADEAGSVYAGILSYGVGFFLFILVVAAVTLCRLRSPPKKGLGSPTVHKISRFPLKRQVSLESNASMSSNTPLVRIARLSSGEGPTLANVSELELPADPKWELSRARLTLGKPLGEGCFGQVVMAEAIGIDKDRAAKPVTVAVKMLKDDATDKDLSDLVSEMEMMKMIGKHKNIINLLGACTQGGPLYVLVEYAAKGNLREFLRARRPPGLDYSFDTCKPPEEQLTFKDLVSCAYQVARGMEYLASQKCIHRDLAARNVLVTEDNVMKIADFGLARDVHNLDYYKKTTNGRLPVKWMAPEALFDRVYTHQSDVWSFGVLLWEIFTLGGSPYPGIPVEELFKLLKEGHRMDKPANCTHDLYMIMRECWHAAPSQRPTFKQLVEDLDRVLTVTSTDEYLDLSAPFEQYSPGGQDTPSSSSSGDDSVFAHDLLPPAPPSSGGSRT
Sequence of wild-type un-phosphorylated FGFR1 (P11362 22-822): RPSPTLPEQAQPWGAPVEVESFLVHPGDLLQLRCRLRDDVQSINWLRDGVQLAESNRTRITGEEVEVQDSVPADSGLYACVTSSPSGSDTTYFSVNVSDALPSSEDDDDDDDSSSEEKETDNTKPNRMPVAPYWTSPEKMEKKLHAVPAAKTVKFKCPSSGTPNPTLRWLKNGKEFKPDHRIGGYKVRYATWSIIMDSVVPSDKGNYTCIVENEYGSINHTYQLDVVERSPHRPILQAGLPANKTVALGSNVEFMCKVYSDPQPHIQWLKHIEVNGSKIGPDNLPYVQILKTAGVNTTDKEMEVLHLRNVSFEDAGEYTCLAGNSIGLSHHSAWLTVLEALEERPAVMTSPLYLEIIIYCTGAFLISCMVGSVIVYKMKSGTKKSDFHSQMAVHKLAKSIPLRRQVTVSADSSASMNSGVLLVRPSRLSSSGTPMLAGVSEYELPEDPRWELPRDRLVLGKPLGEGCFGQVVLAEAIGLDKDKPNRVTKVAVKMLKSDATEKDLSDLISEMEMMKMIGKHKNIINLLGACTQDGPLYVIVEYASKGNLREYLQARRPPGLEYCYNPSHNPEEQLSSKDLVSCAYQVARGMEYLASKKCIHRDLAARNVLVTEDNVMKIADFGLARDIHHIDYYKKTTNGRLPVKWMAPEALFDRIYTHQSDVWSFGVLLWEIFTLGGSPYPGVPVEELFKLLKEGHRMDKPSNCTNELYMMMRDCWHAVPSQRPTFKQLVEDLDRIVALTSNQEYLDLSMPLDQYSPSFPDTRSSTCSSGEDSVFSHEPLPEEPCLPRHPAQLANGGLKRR
Sequence of wild-type un-phosphorylated FGFR4 (P22455 22-802): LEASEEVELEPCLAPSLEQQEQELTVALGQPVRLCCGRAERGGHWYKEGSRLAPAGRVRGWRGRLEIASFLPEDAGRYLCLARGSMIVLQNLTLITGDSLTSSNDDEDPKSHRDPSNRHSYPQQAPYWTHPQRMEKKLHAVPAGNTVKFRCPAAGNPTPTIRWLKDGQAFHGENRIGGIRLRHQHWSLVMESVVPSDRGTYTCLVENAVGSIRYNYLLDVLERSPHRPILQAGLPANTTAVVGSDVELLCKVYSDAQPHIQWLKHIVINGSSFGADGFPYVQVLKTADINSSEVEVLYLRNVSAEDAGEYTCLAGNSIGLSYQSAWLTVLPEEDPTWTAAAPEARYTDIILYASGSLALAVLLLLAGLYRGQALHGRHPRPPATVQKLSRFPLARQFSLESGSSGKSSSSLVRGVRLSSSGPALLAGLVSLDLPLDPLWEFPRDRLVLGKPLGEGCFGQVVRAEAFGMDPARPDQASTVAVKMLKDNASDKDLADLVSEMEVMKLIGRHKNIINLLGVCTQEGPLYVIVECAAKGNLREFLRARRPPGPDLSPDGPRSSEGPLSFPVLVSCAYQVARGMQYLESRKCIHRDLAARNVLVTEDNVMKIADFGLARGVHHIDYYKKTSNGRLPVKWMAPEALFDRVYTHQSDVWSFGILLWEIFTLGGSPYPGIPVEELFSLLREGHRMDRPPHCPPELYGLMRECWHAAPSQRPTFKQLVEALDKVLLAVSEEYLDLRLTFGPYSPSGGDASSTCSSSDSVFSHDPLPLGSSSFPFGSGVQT

On to `COc1cc2[nH]nc(-c3cnn([C@H]4CCN(C(=O)[C@H]5C[C@@](C)(O)C5)C4)c3)c2nc1-c1cccc2c1CCC2` [Example 146, ((S)-3-(4-(5-(2,3-Dihydro-1H-inden-4-yl)-6-methoxy-1H-pyrazolo[4,3-b]pyridin-3-yl)-1H-pyrazol-1-yl)pyrrolidin-1-yl)((1s,3r)-3-hydroxy-3-methylcyclobutyl)methanone], for which the IC50 is 6 to 40 nM in experiment [1] (setting [5]), less than 6 nM in experiment [2], 6 to 40 nM in experiment [3] (setting [6]) and less than 6 nM in experiment [4].

With `COc1cc2[nH]nc(-c3ccc(C4CCN(C(C)=O)C4)nc3)c2nc1-c1cccc2c1CCC2` (single isomer, unassigned) [Example 104, 1-(3-(5-(5-(2,3-Dihydro-1H-inden-4-yl)-6-methoxy-1H-pyrazolo[4,3-b]pyridin-3-yl)pyridin-2-yl)pyrrolidin-1-yl)ethan-1-one], the IC50 in experiment [1] (setting [5]) is 6 to 40 nM; in experiment [2] (read-out: FGFR3, wild-type un-phosphorylated FGFR3, pre-incubated for 4 hours), less than 6 nM; in experiment [3] (setting [6]), 6 to 40 nM; in experiment [4] (setting [7]) it was less than 6 nM.

As to `[2H]C1(c2ccc(-c3n[nH]c4cc(OC)c(-c5cccc6c5CCC6)nc34)cn2)CN(C(=O)CO)C1` [Example 179, 1-(3-(5-(5-(2,3-Dihydro-1H-inden-4-yl)-6-methoxy-1H-pyrazolo[4,3-b]pyridin-3-yl)pyridin-2-yl)azetidin-1-yl-3-d)-2-hydroxyethan-1-one], the IC50 was 6 to 40 nM in experiment [1] (setting [5]), less than 6 nM in experiment [2], 6 to 40 nM in experiment [3] (setting [6]) and less than 6 nM in experiment [4].

`COc1cc2[nH]nc(-c3cnn(C)c3)c2nc1-c1cccc2c1CCC2` [Example 2, 5-(2,3-Dihydro-1H-inden-4-yl)-6-methoxy-3-(1-methyl-1H-pyrazol-4-yl)-1H-pyrazolo[4,3-b]pyridine]: the IC50 in experiment [1] (setting [8]) was 40 to 100 nM; in experiment [2] it was less than 6 nM; in experiment [3] it was 40 to 100 nM; in experiment [4], less than 6 nM.

Regarding `COCC(=O)N(C)C1CC(c2ccc(-c3n[nH]c4cc(OC)c(-c5cccc6c5CCC6)nc34)cn2)C1` (stereo not drawn) [Example 188, N-(3-(5-(5-(2,3-Dihydro-1H-inden-4-yl)-6-methoxy-1H-pyrazolo[4,3-b]pyridin-3-yl)pyridin-2-yl)cyclobutyl)-2-methoxy-N-methylacetamide], the IC50 was 6 to 40 nM in experiment [1] (setting [5]), less than 6 nM in experiment [2], 6 to 40 nM in experiment [3] (setting [6]) and less than 6 nM in experiment [4].

Turning to `COc1cc2[nH]nc(-c3ccc(C4CCN(C(=O)CO)CC4)nc3)c2nc1-c1cccc(C)c1C` [Example 78, 1-(4-(5-(5-(2,3-Dimethylphenyl)-6-methoxy-1H-pyrazolo[4,3-b]pyridin-3-yl)pyridin-2-yl)piperidin-1-yl)-2-hydroxyethan-1-one], the IC50 in experiment [1] (setting [8]) was greater than 100 nM; in experiment [2], less than 6 nM; in experiment [3] it was greater than 100 nM; in experiment [4], less than 6 nM.

For the compound `COc1cc2[nH]nc(-c3ccc(N4CCN5C[C@H](O)C[C@H]5C4)nc3)c2nc1-c1cccc2c1CCC2` [Example 170, (7R,8aS)-2-(5-(5-(2,3-Dihydro-1H-inden-4-yl)-6-methoxy-1H-pyrazolo[4,3-b]pyridin-3-yl)pyridin-2-yl)octahydropyrrolo[1,2-a]pyrazin-7-ol], the IC50 in experiment [1] (setting [5]) is 6 to 40 nM; in experiment [2], less than 6 nM; in experiment [3] (setting [6]) it was 6 to 40 nM; in experiment [4], less than 6 nM.

On to `COc1cc2[nH]nc(-c3cnn(C4CN(C(=O)CN5CCN(C)CC5)C4)c3)c2nc1-c1cccc2c1CCC2` [Example 120, 1-(3-(4-(5-(2,3-Dihydro-1H-inden-4-yl)-6-methoxy-1H-pyrazolo[4,3-b]pyridin-3-yl)-1H-pyrazol-1-yl)azetidin-1-yl)-2-(4-methylpiperazin-1-yl)ethan-1-one], for which the IC50 in experiment [1] (setting [5]) was 6 to 40 nM; in experiment [2], less than 6 nM; in experiment [3], 40 to 100 nM; in experiment [4], less than 6 nM.

For the compound `COCC(=O)N1CC(n2cc(-c3n[nH]c4cc(OC)c(-c5cccc6c5CCC6)nc34)cn2)C1` [Example 147, 1-(3-(4-(5-(2,3-Dihydro-1H-inden-4-yl)-6-methoxy-1H-pyrazolo[4,3-b]pyridin-3-yl)-1H-pyrazol-1-yl)azetidin-1-yl)-2-methoxyethan-1-one], the IC50 was 6 to 40 nM in experiment [1] (setting [5]), less than 6 nM in experiment [2], 40 to 100 nM in experiment [3] and less than 6 nM in experiment [4].

`COc1cc2[nH]nc(-c3cnn(C4CN(C(=O)[C@@H]5CCN5C)C4)c3)c2nc1-c1cccc2c1CCC2` [Example 119, (S)-(3-(4-(5-(2,3-Dihydro-1H-inden-4-yl)-6-methoxy-1H-pyrazolo[4,3-b]pyridin-3-yl)-1H-pyrazol-1-yl)azetidin-1-yl)(1-methylazetidin-2-yl)methanone]: the IC50 in experiment [1] (setting [5]) is 6 to 40 nM; in experiment [2], less than 6 nM; in experiment [3] it was 40 to 100 nM; in experiment [4], less than 6 nM.

Regarding `COC(=O)N1CC(n2cc(-c3n[nH]c4cc(OC)c(-c5cccc6c5CCC6)nc34)cn2)C1` [Example 21, Methyl 3-(4-(5-(2,3-dihydro-1H-inden-4-yl)-6-methoxy-1H-pyrazolo[4,3-b]pyridin-3-yl)-1H-pyrazol-1-yl)azetidine-1-carboxylate], the IC50 is 40 to 100 nM in experiment [1] (setting [8]), less than 6 nM in experiment [2], 40 to 100 nM in experiment [3] and less than 6 nM in experiment [4].

On to `COc1cc2[nH]nc(-c3ccc(C45CC4CN(CCO)C5)cc3)c2nc1-c1cccc2c1CCC2` (stereo not drawn) [Example 158, 2-(1-(4-(5-(2,3-Dihydro-1H-inden-4-yl)-6-methoxy-1H-pyrazolo[4,3-b]pyridin-3-yl)phenyl)-3-azabicyclo[3.1.0]hexan-3-yl)ethan-1-ol], for which the IC50 in experiment [1] (setting [5]) is 6 to 40 nM; in experiment [2] it was less than 6 nM; in experiment [3], 40 to 100 nM; in experiment [4] it was less than 6 nM.

`COc1cc2[nH]nc(-c3cnn(C4CN(C(=O)[C@H]5C[C@@H](O)C5)C4)c3)c2nc1-c1cccc2c1CCC2` [Example 126, (3-(4-(5-(2,3-Dihydro-1H-inden-4-yl)-6-methoxy-1H-pyrazolo[4,3-b]pyridin-3-yl)-1H-pyrazol-1-yl)azetidin-1-yl)((cis)-3-hydroxycyclobutyl)methanone]: the IC50 in experiment [1] (setting [5]) was 6 to 40 nM; in experiment [2], less than 6 nM; in experiment [3] (setting [6]), 6 to 40 nM; in experiment [4], less than 6 nM.

As for `COc1cc2[nH]nc(-c3ccc(N4CCOCC4)nc3)c2nc1-c1cccc(C)c1C` [Example 44, 4-(5-(5-(2,3-Dimethylphenyl)-6-methoxy-1H-pyrazolo[4,3-b]pyridin-3-yl)pyridin-2-yl)morpholine], the IC50 in experiment [1] (setting [8]) was greater than 100 nM; in experiment [2] it was less than 6 nM; in experiment [3] it was greater than 100 nM; in experiment [4] (setting [7]), 6 to 40 nM.

For `COc1cc2[nH]nc(-c3cnn([C@H]4CCN(C(=O)[C@@H](C)O)C4)c3)c2nc1-c1cccc2c1CCC2` [Example 132, (R)-1-((S)-3-(4-(5-(2,3-Dihydro-1H-inden-4-yl)-6-methoxy-1H-pyrazolo[4,3-b]pyridin-3-yl)-1H-pyrazol-1-yl)pyrrolidin-1-yl)-2-hydroxypropan-1-one], the IC50 is 6 to 40 nM in experiment [1] (setting [5]), less than 6 nM in experiment [2], 40 to 100 nM in experiment [3] and less than 6 nM in experiment [4].
